Measurements reported in ChEMBL document CHEMBL1697821, “Development of a phospholipidosis database and predictive quantitative structure-activity relationship (QSAR) models” (Toxicol Mech Methods, 2008).

Test system: Phospholipidosis
Assay: Literature-mined public compounds from Kruhlak et al phospholipidosis modelling dataset

SMILES	Phospholipidosis
CC[N+]1(C)[C@@H]2CC(OC(=O)[C@H](CO)c3ccccc3)C[C@H]1[C@@H]1O[C@@H]12.[Br-] (some centres undefined) [OXITROPIUM BROMIDE]	Negative: based on the absence of positive reported data from WMDD
CCN(CC)CCc1nc(-c2ccccc2)no1 [OXOLAMINE]	Negative: based on the absence of positive reported data from WMDD
CCn1cc(C(=O)O)c(=O)c2cc3c(cc21)OCO3 [OXOLINIC ACID]	Negative: based on the absence of positive reported data from WMDD
CN1CC[C@]23c4c5ccc(O)c4O[C@H]2C(=O)CC[C@@]3(O)[C@H]1C5 [OXYMORPHONE]	Negative: based on the absence of positive reported data from WMDD
CC(C)(CO)[C@@H](O)C(=O)NCCC(=O)O [PANTOTHENIC ACID]	Negative: based on the absence of positive reported data from WMDD
CCC1(C)OC(=O)N(C)C1=O (centres undefined) [PARAMETHADIONE]	Negative: based on the absence of positive reported data from WMDD
C#CCN(C)Cc1ccccc1 [PARGYLINE]	Negative: based on the absence of positive reported data from WMDD
CCC(=O)c1ccc(O)cc1 [PAROXYPROPIONE]	Negative: based on the absence of positive reported data from WMDD
CC1(C)S[C@@H]2[C@H](NC(=O)COc3ccccc3)C(=O)N2[C@H]1C(=O)O [PENICILLIN V]	Negative: based on the absence of positive reported data from WMDD
CCCC(C)C1(CC)C(=O)NC(=O)NC1=O (centres undefined) [PENTOBARBITAL]	Negative: based on the absence of positive reported data from WMDD
CC(=O)CCCCn1c(=O)c2c(ncn2C)n(C)c1=O [PENTOXIFYLLINE]	Negative: based on the absence of positive reported data from WMDD
CCCN1C[C@H](CSC)C[C@@H]2c3cccc4[nH]cc(c34)C[C@H]21 [PERGOLIDE]	Negative: based on the absence of positive reported data from WMDD
C1CCC(C(CC2CCCCN2)C2CCCCC2)CC1 (centres undefined) [PERHEXILINE]	Positive: strong inducer confirmed by electron microscopy
CCC[C@H](N[C@@H](C)C(=O)N1[C@H](C(=O)O)C[C@@H]2CCCC[C@@H]21)C(=O)OCC [PERINDOPRIL]	Negative: based on the absence of positive reported data from WMDD
OCCN1CCN(CCCN2c3ccccc3Sc3ccc(Cl)cc32)CC1 [PERPHENAZINE]	Negative: based on the absence of positive reported data from WMDD
NC(=O)NC(=O)Cc1ccccc1 [PHENACEMIDE]	Negative: based on the absence of positive reported data from WMDD
CCOc1ccc(NC(C)=O)cc1 [PHENACETIN]	Positive: strong inducer confirmed by electron microscopy
Nc1ccc(/N=N/c2ccccc2)c(N)n1 [PHENAZOPYRIDINE]	Negative: based on the absence of positive reported data from WMDD
C[C@H]1[C@H](c2ccccc2)OCCN1C [PHENDIMETRAZINE]	Negative: based on the absence of positive reported data from WMDD
CC(Oc1ccccc1)C(=O)N[C@@H]1C(=O)N2[C@@H]1SC(C)(C)[C@@H]2C(=O)O (some centres undefined) [PHENETHICILLIN]	Negative: based on the absence of positive reported data from WMDD
CN1CCC2=C(C1)C(c1ccccc1)c1ccccc12 (centres undefined) [PHENINDAMINE]	Negative: based on the absence of positive reported data from WMDD
O=C1c2ccccc2C(=O)C1c1ccccc1 [PHENINDIONE]	Negative: based on the absence of positive reported data from WMDD

SMILES	Phospholipidosis
CN(C)CCC(c1ccccc1)c1ccccn1 (centres undefined) [PHENIRAMINE]	Negative: based on the absence of positive reported data from WMDD
CCC1(c2ccccc2)C(=O)NC(=O)NC1=O [PHENOBARBITAL]	Negative: confirmed by electron microscopy
O=C1OC(c2ccc(O)cc2)(c2ccc(O)cc2)c2ccccc21 [PHENOLPHTHALEIN]	Negative: based on the absence of positive reported data from WMDD
CCC(c1ccccc1)c1c(O)c2ccccc2oc1=O (centres undefined) [PHENPROCOUMON]	Negative: based on the absence of positive reported data from WMDD
CC(C)(N)Cc1ccccc1 [PHENTERMINE]	Positive: weak inducer based on presence of foamy macrophages and cytoplasmic vacuolations
Cc1ccc(N(CC2=NCCN2)c2cccc(O)c2)cc1 [PHENTOLAMINE]	Negative: based on the absence of positive reported data from WMDD
CC[C@@H]1C(=O)OC[C@@H]1Cc1cncn1C [PILOCARPINE]	Negative: based on the absence of positive reported data from WMDD
CC(C)NCC(O)COc1cccc2[nH]ccc12 (centres undefined) [PINDOLOL]	Negative: based on the absence of positive reported data from WMDD
CC[N+]1(C)CCCC(OC(=O)C(O)(c2ccccc2)c2ccccc2)C1.[Br-] (centres undefined) [PIPENZOLATE BROMIDE]	Negative: based on the absence of positive reported data from WMDD
CC(C(=O)O)c1ccc2c(c1)Cc1cccnc1O2 (centres undefined) [PRANOPROFEN]	Negative: based on the absence of positive reported data from WMDD
C[C@]12C=CC(=O)C=C1CC[C@@H]1[C@@H]2[C@@H](O)C[C@@]2(C)[C@H]1CC[C@]2(O)C(=O)COC(=O)CCC(=O)O [PREDNISOLONE HEMISUCCINATE]	Negative: based on the absence of positive reported data from WMDD
CCCCC(=O)O[C@]1(C(=O)COC(C)=O)CC[C@H]2[C@@H]3CCC4=CC(=O)C=C[C@]4(C)[C@H]3[C@@H](O)C[C@@]21C [PREDNISOLONE VALERATE ACETATE]	Negative: based on the absence of positive reported data from WMDD
CC(C)NC[C@H](O)COc1ccc(O)cc1 [PRENALTEROL]	Negative: based on the absence of positive reported data from WMDD
CC(Cc1ccccc1)NCCC(c1ccccc1)c1ccccc1 (centres undefined) [PRENYLAMINE]	Positive: weak inducer based on presence of foamy macrophages and cytoplasmic vacuolations
CCCN(CCC)S(=O)(=O)c1ccc(C(=O)O)cc1 [PROBENECID]	Negative: based on the absence of positive reported data from WMDD
CCN(CC)CCNC(=O)c1ccc(N)cc1 [PROCAINAMIDE]	Negative: confirmed by electron microscopy
CCCN(CCC)C(=O)C(CCC(=O)O)NC(=O)c1ccccc1 (centres undefined) [PROGLUMIDE]	Negative: based on the absence of positive reported data from WMDD
CN(C)CCCN1c2ccccc2Sc2ccccc21 [PROMAZINE]	Positive: weak inducer based on presence of foamy macrophages and cytoplasmic vacuolations
CC(CN1c2ccccc2Sc2ccccc21)N(C)C (centres undefined) [PROMETHAZINE]	Positive: weak inducer based on presence of foamy macrophages and cytoplasmic vacuolations
CC(C)[N+](C)(CCOC(=O)C1c2ccccc2Oc2ccccc21)C(C)C.[Br-] [PROPANTHELINE BROMIDE]	Negative: based on the absence of positive reported data from WMDD
CCC(=O)c1ccc2c(c1)N(CC(C)N(C)C)c1ccccc1S2 (centres undefined) [PROPIOMAZINE]	Negative: based on the absence of positive reported data from WMDD
CCC(=O)O[C@](Cc1ccccc1)(c1ccccc1)[C@H](C)CN(C)C [PROPOXYPHENE]	Negative: based on the absence of positive reported data from WMDD
